Experimental data from patent US20140066411A1, “PHARMACEUTICAL COMPOSITIONS FOR EXTENDED RELEASE OF AZO-BONDED 5-AMINOSALICYLIC ACID COMPOSITIONS” (Depomed, Inc., priority 2012, published 2014).

Experiment: Dissolving of olsalazine in dissolution media
Assay type: physicochemical
Description: Formulation 4 tablets were also made using pharmaceutical grade olsalazine in a micronized form in order to test the effects of drug particle size on tablet manufacturing and the ensuing release profiles. In vitro release profiles were evaluated for Formulation 4 tablets made as described in Example 1 and for tablets made using the same formula and process except with micronized olsalazine.

olsalazine
dissolving in media (pH 4.5 acetate buffer): did not completely dissolve | dissolving in media (pH 7.5 phosphate buffer): dissolves easily
